Source: article PMC11065314, “Identification of compounds that cause axonal dieback without cytotoxicity in dorsal root ganglia explants and intervertebral disc cells with potential to treat pain via denervation” (PLOS ONE, 2024)
Several values for one entry are separate records, joined by “and”; a condition that tells them apart may be missing. Identical values can stand only once. Counter-ions that a name gives are not always drawn.

Experiments:
adult rat DRG explants = type: cell-based
[1] = DRG cytotoxicity assessment using LDH assay; type: cell-based, rat; details: female, rat, rat dorsal root ganglion (DRG) explants, female rat DRG explant, single well
Procedure: (§1) 500 nM Imy and 10 nM Vcr were excluded from female rat DRG experiments while 500 nM Vcr and 1 mM Pyr were excluded from male rat DRG experiments due to insufficient DRG replicates with axon outgrowth. DRG media was removed from wells and transferred into a 96-well plate for pre-treat LDH cytotoxicity assay (see Methods below). 300 μL of media treatment solutions or solvent control solutions were added to wells. DRGs were incubated with treatment solutions for three days, and brightfield images at 4X magnification were taken using BioTek Cytation1 Plate Imager (Agilent) before treatment (day -1) and on days 1, 2 and 3 after treatment. DRGs from adult male and female rats were tested to determine if sex can affect axonal dieback. In total, 12 to 15 DRG replicates per group by sex harvested from n = 3 male and n = 3 female rats were tested.
(§2) Lactate dehydrogenase (LDH) is a cytosolic enzyme present in all cells. Dissociated rat DRG neurons release LDH during tunicamycin-induced apoptosis. […] An ideal axonal dieback compound should cause axonal degeneration without neurotoxicity. was assessed on day 3 post-treat and normalized to pre-treat levels to account for variability in DRG size and growth and calculated as a percentage of cytotoxicity to lysed DRGs (positive control). 50 μL of pre-treatment and post-treatment media were aliquoted in duplicates into a 96-well plate. LDH activity in the media post-treat was assessed using the CyQUANT^TM LDH Cytotoxicity Assay Kit (Thermo Fisher Scientific, C20301) according to the manufacturer’s instructions. Briefly, 50 μL of Substrate Mix was added to each well and then incubated at room temperature for 30 minutes protected from light. 50 μL of Stop solution was added to each well and the absorbance at 490 nm and 680 nm was measured using a microplate reader (Agilent). LDH activity of each DRG was calculated as the difference between absorbance at 490 nm after subtracting the background absorbance at 680 nm. As a positive control, 13 female rat DRGs and 15 male rat DRGs were treated for three days with Lysis buffer solution, provided in the kit, diluted 1:5.45 in DRG media. The percentage of cytotoxicity was calculated following Eq 2. Pre-treat levels of LDH activity were subtracted from post-treat LDH activity in each DRG to remove baseline LDH activity then percentage of cytotoxicity compared to positive control lysed DRG LDH activity was calculated. Sex is a biological factor that can influence neurotoxicity. Thus, percentage of cytotoxicity of total 11 to 14 DRG replicates per group by sex from n = 3 male and n = 3 female rats were tested.
(§3) Cytotoxicity(%)=(PosttreatLDHactivity)−(PretreatLDHactivity)/(MaximumLDHactivityfromlysedDRGs)−(PretreatLDHactivity)×100% (2)

rat DRG explants = assay: DRG cytotoxicity assessment using LDH assay; type: cell-based; details: for Cytotoxicity (%): single well; for Overall cytotoxicity lower compared to lysed DRGs: all concentrations tested, day 3
Procedure: as §1, §2, §3

[2] = Quantification of viable NP cells (LIVE/DEAD staining); type: cell-based, human; details: both sexes, human; 500 μM, 1 mM and 2 mM, day 3 post-treatment, either donor; read-out: Percentage of viable cells
Procedure: (§4) Nucleus pulposus (NP) cells are native matrix-producing cells at the core of intervertebral discs. To repurpose axonal dieback compounds to denervate aberrant nerve fibers in discs related to chronic LBP, the cytocompatibility of these compounds with NP cells must be evaluated. Human NP cells (Sciencell, 4800) from donor 1 (Lot #5954) and donor 2 (Lot# 21579) were cultured according to previously established protocol in our lab adapted from manufacturer’s instructions. Briefly, passage three cells from both donors were expanded in Poly-L-lysine (PLL) (Sciencell, 413) coated T75 flasks. Cells were then lifted and reseeded at 5,000 cells/cm^2 onto two PLL-coated 48-well plates (Greiner Bio-One, 677180) and allowed to attach overnight before treating with Pyr or Vcr. One plate was used for LIVE/DEAD staining and the other plate was used for AlamarBlue assay as described below. Complete NP cell media (Sciencell, 4801) containing basal media supplemented with 1% penicillin-streptomycin, 1% growth supplement and 2% FBS were used for maintaining cells in culture. To mimic the hypoxic disc environment, NP cells were cultured in a hypoxia chamber (Stem Cell Technologies, 27310) with 5% CO2, 3.5% O2, 91.5% N2 (Airgas) during the entire culture and treatment incubation period.
(§5) Pyr stock solution was diluted in complete NP media to achieve final concentrations of 500 μM, 1 mM and 2 mM Pyr. 16.9 μg/mL and 169 μg/mL Vcr stock solutions were prepared in 1X PBS then diluted in complete NP media to achieve final concentrations of 10, 25, 50, 100 nM and 200, 500 nM, respectively. Cells were incubated with 250 μL of final treatment solutions in duplicate wells per donor for three days. Cells in negative control group were incubated with 250 μL of complete NP media with 0.55% v/v 1X PBS as solvent control. On day 3 post-treatment, brightfield images at 4X magnification were taken using a BioTek Cytation1 Plate Imager (Agilent) to verify cell proliferation and observe cell morphology. Three experimental replicates were performed for each cell donor.
(§6) On day 3 of incubation with drug, media treatment solutions were removed from each well and cells were carefully rinsed with 200 μL of sterile 1X PBS to remove excess media. NP cells were stained with 150 μL of 2 μM Calcein AM and 6 μM EtHD-1 solution from LIVE/DEAD Viability/Cytotoxicity Kit (Thermo Fisher Scientific, L3224) for 30 minutes at room temperature protected from light. After staining, cells were gently rinsed with 200 μL sterile 1X PBS to remove excess staining solution. Excitation and emission wavelengths for live cell fluorescence is 495 and 515 nm and dead cell fluorescence is 495 and 635 nm. Using a BioTek Cytation1 Plate Imager (Agilent), GFP filter cube (Agilent, 1225101, ex: 451.5–486.5 nm, em: 505.5–544.5 nm) and RFP filter cubes (Agilent, 1225103, ex: 511-551nm, em: 573–613 nm), fluorescent images at 4X magnification of four regions per well were taken. Gen5 v3.11 software (Agilent) was used to count green (live) and orange (dead) cells in fluorescent images. Dead NP cell staining was verified and evident by positive EtHD-1 orange staining in kill control wells where cells were treated with 70% EtOH for 10 minutes (S4 Fig). Percentage of live cells were calculated by calculating the percentage of live cells over total cell counts as shown in Eq 3.
(§7) Cellviability(%)=Livecellcounts/Livecellcounts+Deadcellcounts×100% (3)

Human NP cells [3] = assay: as above; type: cell-based
Procedure: as §4, §5, §6, §7

Human NP cells [4] = assay: NP cell metabolic activity (AlamarBlue reduction); type: cell-based;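 as to AB reduction per cell (%): percent AlamarBlue reduction per manufacturer divided by estimated total cells per well from LIVE/DEAD counts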
Procedure: as §4, §5
On day 3 of incubation with drugs, 25 μL (10% v/v of media volume) of AlamarBlue HS cell viability reagent (Thermo Fisher Scientific, A50100) were added into each well. Cells were incubated with the AlamarBlue reagent for 2 hours at 37°C under hypoxia then 60 μL aliquots of cell media were removed in duplicates into a 96-well plate. The absorbance at 570 and 600 nm were read using a microplate reader (Agilent) and calculations for AlamarBlue reduction were calculated according to the manufacturer’s protocol. To account for different cell confluency between donors and groups, AlamarBlue reduction was normalized to estimated total number of cells per well obtained from LIVE/DEAD staining. Cellular metabolic activity in treated groups was reported as a ratio of normalized AlamarBlue reduction to PBS control group.

sciatic nerves = test system: sciatic nerves; design: method as in PMID 3126271; details: applied onto sciatic nerves; cited from earlier work
[5] = design: method as in PMID 30888737; details: intraarticular injection; cited from earlier work
[6] = test system: dissociated neonatal DRG neurons; design: method as in PMID 7617165; details: 30 μM, within 24 hours; cited from earlier work
[7] = 500 µM, donor 1, day 3, single wells (Exp, Rep)
[8] = 500 µM, donor 2, day 3, single wells (Exp, Rep)
[9] = 1 mM, donor 1, day 3, single wells (Exp, Rep)
[10] = 1 mM, donor 2, day 3, single wells (Exp, Rep)
[11] = 2 mM, donor 1, day 3, single wells (Exp, Rep)

**Q.** Which “Axonal dieback over time and against solvent control” value (adult rat DRG explants) does the source give for Cc1ncc(CO)c(CO)c1O [Pyr, Pyridoxine hydrochloride] here?
**A.** The value was “did not induce significant axonal dieback”.

**Q.** What about the “Day on which Caps axon length ratio threshold (0.45) was met” value (adult rat DRG explants) of the same molecule?
**A.** The value was ≤ 2 days.

**Q.** What about the “Median axon length ratio (interquartile range)” value (from here on “Median axon length ratio”) (adult rat DRG explants) of the same molecule?
**A.** The value was 0.607 (0.418–0.875) and 0.539 (0.317–0.676) and 0.451 (0.347–0.587).

**Q.** What about the cytotoxicity at 3 days, 500 µM ([1]; 500 µM) of the same molecule?
**A.** Its cytotoxicity at 3 days, 500 µM is 5.33%.

**Q.** And the cytotoxicity at 3 days, 1 mM ([1]; 1 mM)?
**A.** Its cytotoxicity at 3 days, 1 mM is 3.24%.

**Q.** And the “Cytotoxicity (%)” value (rat DRG explants; 50 µM, female rat DRG explant)?
**A.** Its value is 1.523% and -1.428% and 2.095%.

**Q.** What about the “Cytotoxicity (%)” value (rat DRG explants; 500 µM, female rat DRG explant) of the same molecule?
**A.** Its value is 8.854% and 7.426%.

**Q.** What about the “Cytotoxicity (%)” value (rat DRG explants; 1 mM, female rat DRG explant) of the same molecule?
**A.** Its value is 4.951% and 3.523%.

**Q.** What about the viability at 3 days [2] of the same molecule?
**A.** The viability at 3 days was > 89%.

**Q.** And the “Percent live (%)” value (Human NP cells [3]; [7])?
**A.** The value was 99.8382% and 99.8845% and 99.1403% and 98.8605% and 99.9471% and 98.2749%.

**Q.** What about the “Percent live (%)” value (Human NP cells [3]; [8]) of the same molecule?
**A.** Its value is 97.5506% and 96.954% and 96.3405% and 99.1395% and 96.5794% and 98.8823%.

**Q.** And the “Percent live (%)” value (Human NP cells [3]; [9])?
**A.** Its value is 99.8893% and 99.7678% and 99.8269% and 99.7809%.

**Q.** And the “Percent live (%)” value (Human NP cells [3]; [10])?
**A.** Its value is 96.1436% and 95.9726% and 96.9575% and 96.5249%.

**Q.** What about the “Percent live (%)” value (Human NP cells [3]; [11]) of the same molecule?
**A.** Its value is 98.6699% and 99.5161% and 83.5317% and 86.125% and 97.6421% and 98.8217%.

**Q.** What about the “AlamarBlue reduction normalized to cell counts compared to PBS control” value (Human NP cells [4]; 500 μM, 1 mM and 2 mM, day 3) of the same molecule?
**A.** Its value is “not significantly different between PBS control and all treated groups”.

**Q.** And the “AB reduction per cell (%)” value (Human NP cells [4]; [7])?
**A.** The value was 0.001757% and 0.001402% and 0.001221% and 0.001189% and 0.001666% and 0.001549%.

**Q.** And the “AB reduction per cell (%)” value (Human NP cells [4]; [8])?
**A.** The value was 0.002098% and 0.001803% and 0.002358% and 0.001696% and 0.002473% and 0.003239%.

**Q.** And the “AB reduction per cell (%)” value (Human NP cells [4]; [9])?
**A.** The value was 0.001279% and 0.001156% and 0.001657% and 0.001546%.

**Q.** And the “AB reduction per cell (%)” value (Human NP cells [4]; [10])?
**A.** The value was 0.001937% and 0.002155% and 0.002387% and 0.003301%.

**Q.** And the “AB reduction per cell (%)” value (Human NP cells [4]; [11])?
**A.** Its value is 0.002206% and 0.002078% and 0.002787% and 0.003671% and 0.002259% and 0.001426%.

**Q.** What about the “AB reduction per cell (%)” value (Human NP cells [4]; 2 mM, donor 2, day 3, single wells (Exp, Rep)) of the same molecule?
**A.** The value was 0.00138% and 0.001132% and 0.01401% and 0.003735% and 0.006792% and 0.003692%.

**Q.** With C[C@H](CCC(=O)O)C[C@H](C)C[C@H](C)C(=O)/C=C(\O)[C@H](C)C[C@H](C)C/C=C/[C@@H](C)[C@@H](O)[C@@H](C)[C@@H](O)C[C@@H]1CC[C@@](C)([C@H]2CC[C@@](C)([C@@H](C)O)O2)O1 [Imy, Ionomycin] as the molecule, how does the “Change in axon length ratio between timepoints” value (adult rat DRG explants) read?
**A.** The value was “no significant differences were observed between timepoints”.

**Q.** And the “Decrease in axon length” value (adult rat DRG explants)?
**A.** Its value is 10%.

**Q.** What about the “Median axon length ratio” value (adult rat DRG explants) of the same molecule?
**A.** The value was 0.977 (0.852–1.004) and 0.9 (0.75–0.985) and 0.982 (0.854–1.121).

**Q.** And the cytotoxicity at 3 days, 0.77 µM ([1]; 0.77 µM)?
**A.** The cytotoxicity at 3 days, 0.77 µM was 8.76%.

**Q.** And the “Cytotoxicity (%)” value (rat DRG explants; 0.77 µM, female rat DRG explant)?
**A.** Its value is 6.379% and 11.5202%.

**Q.** What about the “Overall cytotoxicity lower compared to lysed DRGs” value (rat DRG explants) of the same molecule?
**A.** Its value is “at least 88%”.

**Q.** What about the “Fibers exhibiting large nerve lesions” value (sciatic nerves) of the same molecule?
**A.** Its value is “up to 95%”.

**Q.** For COc1cc(CNC(=O)CCCC/C=C/C(C)C)ccc1O [Caps, capsaicin], which “Duration of alleviation of knee pain” value [5] is on record?
**A.** Its value is “about 18 weeks”.

**Q.** What about the “Median axon length ratio” value (adult rat DRG explants) of the same molecule?
**A.** Its value is 0.657 (0.359–0.750) and 0.453 (0.270–0.624).

**Q.** What about the Cell death [6] of the same molecule?
**A.** Its Cell death is “induced significant cell death”.

**Q.** And the “Percentage of cytotoxicity lower than in lysed DRGs” value (rat DRG explants; 3.79 mM, 3-day incubation)?
**A.** Its value is 90.2%.

**Q.** And the “Cytotoxicity (%)” value (rat DRG explants; 3.79 mM, male rat DRG explant)?
**A.** The value was 16.4427%.

**Q.** What about the “Overall cytotoxicity lower compared to lysed DRGs” value (rat DRG explants) of the same molecule?
**A.** The value was “at least 88%”.
